Read-outs that look alike come from different tables or passages of the source.
Key:
[1] = system: E. coli MG1655 GyrA S83L, D87N ParC S80I, E84G; assay: microbe, parasite or virus in culture; type: cell-based, Escherichia coli; settings: for MIC: Escherichia coli, MG1655, read-out: Minimum Inhibitory Concentration E. coli MG# GyrA S83L, D87N ParC S80I, E84G; for Minimum Inhibitory Concentration E. coli MG1655 GyrA S83L, D87N ParC S80I, E84G: in the presence of 50 µg/mL PAβN
Source text: (§1) E. coli MG1655 originated from the laboratory collection of Dr. Csaba Pál. […] E. coli K-12 BW25113 single-gene knockout mutant lines ΔdapF, ΔmrcB, ΔsurA, ΔacrB and ΔtolC originated form the Keio collection copy owned by the laboratory of Dr. Csaba Pál.
(§2) Cation-adjusted Mueller Hinton II broth (MHBII) was used for growth of the bacteria under standard laboratory conditions, for antimicrobial susceptibility tests, and for selection of resistant variants. To prepare the MHBII broth, 22 g MHBII powder (containing 3 g beef extract, 17.5 g acid hydrolysate of casein, 1.5 g starch; Becton, Dickinson and Co., Franklin Lakes, NJ, USA) was dissolved in 1 L water. MHBII agar was prepared by addition of 14 g agar (Bacto; Molar Chemicals, Halásztelek, Hungary) to 1 L broth.
(§3) Minimum inhibitory concentrations (MICs) were determined using a standard serial broth microdilution technique, according to the Clinical and Laboratory Standards Institute guidelines. […] For Enterococcus sp., the cells were plated in BHI agar plates, and BHI broth was used to determine the MICs. […] Following the dilutions, each well was seeded with 5 × 10^4 bacterial cells. Each measurement was performed in three parallel replicates, and to avoid possible edge effects in the microwell plates, the outside rows (A, H) were filled with sterile medium. Following the inoculations, the plates were covered with the lids and wrapped in polyethylene plastic bags, to minimize evaporation but to allow O2 transfer. […] After incubation, the OD600 of each well was measured using a microplate reader (Synergy 2; Biotek, Winooski, VT, USA).
(§4) These mutated amino acids are the most common sites for target-based resistance in E. coli.

[2] = system: E. coli MG1655 GyrB R136C; assay: microbe, parasite or virus in culture; type: cell-based, Escherichia coli; settings: for MIC: Escherichia coli, MG1655, read-out: Minimum Inhibitory Concentration E. coli MG# GyrB R#C; for Minimum Inhibitory Concentration E. coli MG1655 GyrB R136C: in the presence of 50 µg/mL PAβN
Source text: as §1, §2, §3, §4

E. coli MG1655 WT = assay: MIC, E. coli MG1655 wild-type with PAβN; type: cell-based, Escherichia coli; settings: for MIC: Escherichia coli, MG1655, read-out: Minimum Inhibitory Concentration E. coli MG# WT, 50 µg/mL PAβN, molar conversion in parentheses; for Minimum Inhibitory Concentration E. coli MG1655 WT: in the presence of 50 µg/mL PAβN
Source text: as §1, §2
as §3, with “USA). […]” for “USA).”

K. pneumoniae ATCC 10031 = assay: MIC broth microdilution, K. pneumoniae; type: cell-based; settings: Klebsiella pneumoniae, ATCC10031, read-out: MIC K. pneumoniae ATCC #
Source text: as §1, §2, §3

E. coli BW25113 ΔsurA = type: cell-based, Escherichia coli
Source text: as §1, §2, §3

E. coli BW25113 ΔtolC = type: cell-based, Escherichia coli
Source text: as §1, §2, §3

E. coli BW25113 ΔdapF = type: cell-based, Escherichia coli
Source text: as §1, §2, §3

E. coli BW25113 ΔacrB = type: cell-based, Escherichia coli
Source text: as §1, §2, §3

E. coli BW25113 ΔmrcB = type: cell-based, Escherichia coli
Source text: as §1, §2, §3

E. coli ATCC 25922 = assay: MIC broth microdilution, E. coli ATCC 25922; type: cell-based; settings: Escherichia coli, ATCC25922, read-out: MIC E. coli ATCC #
Source text: as §1, §2, §3

E. coli topoisomerase IV = target: T1, E. coli topoisomerase IV (Escherichia coli, UniProt P0AFI2+P20083); assay: E. coli topoisomerase IV relaxation assay; type: biochemical; settings: for Inhibition of topoisomerase IV (in words): relaxation assay
T1 construct: purchased Inspiralis, Norwich, UK
Experimental: (§5) The assay for determination of the IC50 values was performed according to previously reported procedures.
(§6) Briefly, inhibitory activities were determined using supercoiling (for DNA gyrase) and relaxation (for topoisomerase IV) assay kits (Inspiralis, Norwich, UK) on streptavidin-coated 96-well microtiter plates from Thermo Scientific Pierce (Thermo Fisher Scientific, Waltham, MA, USA). First, the plates were rehydrated with Wash Buffer and the biotinylated oligonucleotide TFO1 was then immobilized. After washing off the unbound oligonucleotide with Wash Buffer, the enzyme assay was performed. Into each well was added 24 µL of mixture containing 6 µL of Assay Buffer (containing ATP), 0.75 µL of relaxed (for E. coli DNA gyrase supercoiling assay) or supercoiled (for E. coli topoisomerase IV relaxation assay) pNO1 plasmid and 17.25 µL of water. Additionally, 3 µL of a solution of the inhibitor in 10% DMSO containing 0.008% Tween 20 and 3 µL of enzyme (1.5 U) in Dilution Buffer were also added to the wells. […] The TF buffer was added to terminate the enzymatic reaction and after additional incubation for 30 min at room temperature, which allowed for triplex formation (biotin–oligonucleotide–plasmid), the unbound plasmid was washed off using TF buffer. Promega Diamond dye in T10 buffer was then added. […] Here, the compounds were diluted using 2-fold serial dilution steps of the given compound. GraphPad Prism 6.0 software was used to calculate the IC50 values, which were determined in at least two independent measurements, and their means are given as the final result. […] Dose-response curves can be found in Supplementary Materials.

E. coli BW25113 WT = assay: MIC, E. coli BW25113 wild-type; type: cell-based; settings: Escherichia coli, BW25113, read-out: Minimum Inhibitory Concentration E. coli BW# WT
Source text: as §1, §2, §3

P. aeruginosa ATCC 27863 = assay: MIC broth microdilution, P. aeruginosa; type: cell-based; settings: Pseudomonas aeruginosa
Source text: as §1, §2, §3

[3] = system: E. cloacae spp. cloacae ATCC 13047; assay: MIC broth microdilution, E. cloacae; type: cell-based, Enterobacter cloacae; settings: Enterobacter cloacae, ATCC13047, read-out: MIC E. cloacae spp. cloacae ATCC #
E. coli DNA gyrase = target: T2, E. coli DNA gyrase (Escherichia coli, UniProt P0AES4+P0AES6); assay: E. coli DNA gyrase supercoiling assay; type: biochemical
T2 construct: purchased Inspiralis, Norwich, UK
Experimental: as §5, §6

A. baumannii ATCC 17978 = assay: MIC broth microdilution, A. baumannii; type: cell-based; settings: Acinetobacter baumannii, ATCC17978, read-out: MIC A. baumannii ATCC #
Source text: as §1, §2, §3

[4] = molar conversion in parentheses
[5] = ATCC27863, 18 h, read-out: MIC P. aeruginosa ATCC #
[6] = ATCC27863, read-out: MIC P. aeruginosa ATCC #, molar conversion in parentheses, read-out: MIC P. aeruginosa ATCC 27863

Cc1[nH]c(C(=O)Nc2nc3c(OCc4ccccc4)cc(C(=O)N4CCN(c5cc6c(cc5F)c(=O)c(C(=O)O)cn6C5CC5)CC4)cc3s2)c(Cl)c1Cl [Compound 3b, 7-(4-(4-(Benzyloxy)-2-(3,4-dichloro-5-methyl-1H-pyrrole-2-carboxamido)benzo[d]thiazole-6-carbonyl)piperazin-1-yl)-1-cyclopropyl-6-fluoro-4-oxo-1,4-dihydroquinoline-3-carboxylic acid]
MIC [1]: > 81 µM
Minimum Inhibitory Concentration E. coli MG1655 GyrA S83L, D87N ParC S80I, E84G [1]: >64 µg/mL
MIC [2]: 40.5 µM
Minimum Inhibitory Concentration E. coli MG1655 GyrB R136C [2]: 32 µg/mL
melting point: > 300 °C
MIC (E. coli MG1655 WT): 81 µM
Minimum Inhibitory Concentration E. coli MG1655 WT (E. coli MG1655 WT): 64 µg/mL
MIC (K. pneumoniae ATCC 10031; broth microdilution, 18 h): > 64 mg/L
MIC (K. pneumoniae ATCC 10031; [4]): > 81 µM
Minimum Inhibitory Concentration E. coli BW25113 ΔsurA (E. coli BW25113 ΔsurA; impaired cell-wall mutant): >64 µg/mL
Minimum Inhibitory Concentration E. coli BW25113 ΔsurA (E. coli BW25113 ΔsurA; [4]): (>81.0 µM)
Minimum Inhibitory Concentration E. coli BW25113 ΔtolC (E. coli BW25113 ΔtolC; efflux pump mutant): 16 µg/mL
Minimum Inhibitory Concentration E. coli BW25113 ΔtolC (E. coli BW25113 ΔtolC; [4]): (20.3 µM)
Minimum Inhibitory Concentration E. coli BW25113 ΔdapF (E. coli BW25113 ΔdapF; impaired cell-wall mutant): >64 µg/mL
Minimum Inhibitory Concentration E. coli BW25113 ΔdapF (E. coli BW25113 ΔdapF; [4]): (>81.0 µM)
Minimum Inhibitory Concentration E. coli BW25113 ΔacrB (E. coli BW25113 ΔacrB; efflux pump mutant): >64 µg/mL
Minimum Inhibitory Concentration E. coli BW25113 ΔacrB (E. coli BW25113 ΔacrB; [4]): (>81.0 µM)
Minimum Inhibitory Concentration E. coli BW25113 ΔmrcB (E. coli BW25113 ΔmrcB; impaired cell-wall mutant): >64 µg/mL
Minimum Inhibitory Concentration E. coli BW25113 ΔmrcB (E. coli BW25113 ΔmrcB; [4]): (>81.0 µM)
MIC (E. coli ATCC 25922; broth microdilution, 18 h): > 64 mg/L
MIC (E. coli ATCC 25922; [4]): > 81 µM
IC50 (E. coli topoisomerase IV): > 10 µM
Inhibition of topoisomerase IV (in words) (E. coli topoisomerase IV): lack of activity
MIC (E. coli BW25113 WT; [4]): > 81 µM
MIC (E. coli BW25113 WT; wild-type): > 64 mg/L
MIC (P. aeruginosa ATCC 27863; [5]): > 64 mg/L
MIC (P. aeruginosa ATCC 27863; [6]): > 81 µM
MIC ([3]; broth microdilution, 18 h): > 64 mg/L
MIC [3, 4]: > 81 µM
IC50 (E. coli DNA gyrase): 3.3 ± 1.5 µM
MIC (A. baumannii ATCC 17978; broth microdilution, 18 h): > 64 mg/L
MIC (A. baumannii ATCC 17978; [4]): > 81 µM

Cc1[nH]c(C(=O)Nc2nc3c(OCc4ccccc4)cc(C(=O)NCCOCCN4CCN(c5cc6c(cc5F)c(=O)c(C(=O)O)cn6C5CC5)CC4)cc3s2)c(Cl)c1Cl.Cl [Compound 11b, 1-(2-(2-(4-(Benzyloxy)-2-(3,4-dichloro-5-methyl-1H-pyrrole-2-carboxamido)benzo[d]thiazole-6-carboxamido)ethoxy)ethyl)-4-(3-carboxy-1-cyclopropyl-6-fluoro-4-oxo-1,4-dihydroquinolin-7-yl)piperazin-1-ium chloride]
MIC [1]: 4.56 µM
Minimum Inhibitory Concentration E. coli MG1655 GyrA S83L, D87N ParC S80I, E84G [1]: 4 µg/mL
MIC [2]: 2.28 µM
Minimum Inhibitory Concentration E. coli MG1655 GyrB R136C [2]: 2 µg/mL
MIC (E. coli MG1655 WT): 1.14 µM
Minimum Inhibitory Concentration E. coli MG1655 WT (E. coli MG1655 WT): 1 µg/mL
MIC (K. pneumoniae ATCC 10031; broth microdilution, 18 h): 1 mg/L
MIC (K. pneumoniae ATCC 10031; [4]): 1.14 µM
Minimum Inhibitory Concentration E. coli BW25113 ΔsurA (E. coli BW25113 ΔsurA; impaired cell-wall mutant): 8 µg/mL
Minimum Inhibitory Concentration E. coli BW25113 ΔsurA (E. coli BW25113 ΔsurA; [4]): (9.11 µM)
Minimum Inhibitory Concentration E. coli BW25113 ΔtolC (E. coli BW25113 ΔtolC; efflux pump mutant): 1 µg/mL
MIC change, ΔtolC mutant versus wild-type E. coli BW25113 (E. coli BW25113 ΔtolC; improvement of MIC in impaired efflux pump mutant): 8 fold
Minimum Inhibitory Concentration E. coli BW25113 ΔtolC (E. coli BW25113 ΔtolC; [4]): (1.14 µM)
Minimum Inhibitory Concentration E. coli BW25113 ΔdapF (E. coli BW25113 ΔdapF; impaired cell-wall mutant): 8 µg/mL
Minimum Inhibitory Concentration E. coli BW25113 ΔdapF (E. coli BW25113 ΔdapF; [4]): (9.11 µM)
Minimum Inhibitory Concentration E. coli BW25113 ΔacrB (E. coli BW25113 ΔacrB; efflux pump mutant): 8 µg/mL
Minimum Inhibitory Concentration E. coli BW25113 ΔacrB (E. coli BW25113 ΔacrB; [4]): (9.11 µM)
Minimum Inhibitory Concentration E. coli BW25113 ΔmrcB (E. coli BW25113 ΔmrcB; impaired cell-wall mutant): 8 µg/mL
Minimum Inhibitory Concentration E. coli BW25113 ΔmrcB (E. coli BW25113 ΔmrcB; [4]): (9.11 µM)
MIC (E. coli ATCC 25922; broth microdilution, 18 h): 4 mg/L
MIC (E. coli ATCC 25922; [4]): 4.56 µM
IC50 (E. coli topoisomerase IV): 2.5 ± 1.1 µM
Inhibition of topoisomerase IV (in words) (E. coli topoisomerase IV): low micromolar
MIC (E. coli BW25113 WT; [4]): 9.11 µM
MIC (E. coli BW25113 WT; wild-type): 8 mg/L
MIC (P. aeruginosa ATCC 27863; [5]): > 64 mg/L
MIC (P. aeruginosa ATCC 27863; [6]): > 72.9 µM
MIC ([3]; broth microdilution, 18 h): 16 mg/L
MIC [3, 4]: 18.2 µM
IC50 (E. coli DNA gyrase): 0.014 ± 0.009 µM
MIC (A. baumannii ATCC 17978; broth microdilution, 18 h): 64 mg/L
MIC (A. baumannii ATCC 17978; [4]): 72.9 µM

Reference: PMC7822030, “Hybrid Inhibitors of DNA Gyrase A and B: Design, Synthesis and Evaluation” (Pharmaceutics, 2020)
